{
  "source": "paper PMC8002452",
  "about": "“Molecular Basis of AmpC β-Lactamase Induction by Avibactam in Pseudomonas aeruginosa: PBP Occupancy, Live Cell Binding Dynamics and Impact on Resistant Clinical Isolates Harboring PDC-X Variants” (International Journal of Molecular Sciences, 2021)",
  "key": {"PBP3 [1]": {"biological_target": "T1, PBP3 (Pseudomonas aeruginosa, UniProt G3XD46)", "T1 construct": "PBP-containing membranes were isolated by ultracentrifugation; endogenous in cells; host or cells: P. aeruginosa PAO1 wild type (membrane preparations or intact cells)", "T1 sequence (G3XD46 whole entry)": "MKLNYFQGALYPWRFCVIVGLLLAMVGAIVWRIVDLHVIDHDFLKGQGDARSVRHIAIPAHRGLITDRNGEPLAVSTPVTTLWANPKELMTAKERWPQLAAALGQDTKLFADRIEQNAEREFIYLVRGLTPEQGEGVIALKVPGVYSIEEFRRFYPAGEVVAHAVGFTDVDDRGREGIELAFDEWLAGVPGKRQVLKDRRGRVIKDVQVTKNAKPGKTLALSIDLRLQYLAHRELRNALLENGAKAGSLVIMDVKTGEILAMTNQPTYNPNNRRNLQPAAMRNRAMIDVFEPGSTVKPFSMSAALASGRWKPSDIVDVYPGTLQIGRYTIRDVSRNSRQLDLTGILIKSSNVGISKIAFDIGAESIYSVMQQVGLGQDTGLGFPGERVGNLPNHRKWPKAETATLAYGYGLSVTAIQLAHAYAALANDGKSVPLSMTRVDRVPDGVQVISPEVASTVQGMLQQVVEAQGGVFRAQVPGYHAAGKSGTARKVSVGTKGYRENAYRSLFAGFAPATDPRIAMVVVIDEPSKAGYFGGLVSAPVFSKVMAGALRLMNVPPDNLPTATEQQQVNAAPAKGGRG", "experiment": "biochemical", "type": "binding, P. aeruginosa PAO1", "conditions": "PAO1 membranes 0.5 mg/mL, 30 min, 25 µM bocillin FL", "procedure": "(§1) PBP-binding affinity was determined using previously described methods. Briefly, P. aeruginosa PAO1 cultures grown to the midexponential phase (7.6 log10 CFU/mL) were incubated in CAMHB at 37 °C and 180 rpm, washed and centrifuged (3220× g for 10 min at 4 °C). Bacterial pellets were washed in 30 mL of PBS buffer (pH 7.5), resuspended in 10 mL of PBS and sonicated at 40% amplitude for three 2 min bursts (while immersed in an ice bath) and centrifuged at 3220× g for 15 min at 4 °C. PBP-containing membranes were isolated by ultracentrifugation at 150,000× g for 30 min at 4 °C. Total protein concentrations were measured through the Bradford method.\n(§2) Subsequently, the fluorescent penicillin bocillin FL was added to a 25 μM final concentration. Labeled PBPs were denatured and separated through 4–15% SDS–polyacrylamide gel electrophoresis. Labeled PBPs were visualized using a Typhoon FLA 9500 biomolecular imager (GE Healthcare Bio-Sciences AB, Uppsala, Sweden) (excitation at 488 nm and emission at 530 nm), and binding was determined from at least three independent experiments using ImageQuant TL software v8.1.0.0 (GE Healthcare Bio-Sciences AB, Uppsala, Sweden)."}, "PBP4 [2]": {"biological_target": "T2, PBP4 (Pseudomonas aeruginosa, UniProt Q9HZG1)", "T2 sequence (Q9HZG1 entry or part of it)": "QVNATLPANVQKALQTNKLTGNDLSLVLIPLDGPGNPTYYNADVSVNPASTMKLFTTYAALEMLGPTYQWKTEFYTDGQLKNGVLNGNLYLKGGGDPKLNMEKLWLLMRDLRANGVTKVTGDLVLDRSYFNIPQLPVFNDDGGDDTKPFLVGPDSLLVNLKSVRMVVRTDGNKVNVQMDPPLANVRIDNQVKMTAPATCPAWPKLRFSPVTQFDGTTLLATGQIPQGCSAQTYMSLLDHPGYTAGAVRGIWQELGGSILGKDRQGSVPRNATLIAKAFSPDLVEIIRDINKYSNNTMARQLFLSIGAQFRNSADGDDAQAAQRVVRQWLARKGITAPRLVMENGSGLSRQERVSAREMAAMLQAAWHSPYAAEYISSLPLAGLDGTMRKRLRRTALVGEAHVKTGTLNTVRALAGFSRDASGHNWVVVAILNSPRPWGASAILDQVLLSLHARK", "experiment": "PBP-binding affinity (IC50), bocillin FL, isolated membranes", "set-up": "species or system P. aeruginosa PAO1", "conditions": "PAO1 membranes 0.5 mg/mL, 30 min, 25 µM bocillin FL; read-out: Mean IC50 ± SD, PBP 4 (converted)", "procedure": "as §1, §2"}, "PBP1a [3]": {"biological_target": "T3, PBP1a (Pseudomonas aeruginosa, UniProt Q07806)", "T3 construct": "PBP-containing membranes were isolated by ultracentrifugation; endogenous in cells; host or cells: P. aeruginosa PAO1 wild type (membrane preparations or intact cells)", "T3 sequence (Q07806 whole entry)": "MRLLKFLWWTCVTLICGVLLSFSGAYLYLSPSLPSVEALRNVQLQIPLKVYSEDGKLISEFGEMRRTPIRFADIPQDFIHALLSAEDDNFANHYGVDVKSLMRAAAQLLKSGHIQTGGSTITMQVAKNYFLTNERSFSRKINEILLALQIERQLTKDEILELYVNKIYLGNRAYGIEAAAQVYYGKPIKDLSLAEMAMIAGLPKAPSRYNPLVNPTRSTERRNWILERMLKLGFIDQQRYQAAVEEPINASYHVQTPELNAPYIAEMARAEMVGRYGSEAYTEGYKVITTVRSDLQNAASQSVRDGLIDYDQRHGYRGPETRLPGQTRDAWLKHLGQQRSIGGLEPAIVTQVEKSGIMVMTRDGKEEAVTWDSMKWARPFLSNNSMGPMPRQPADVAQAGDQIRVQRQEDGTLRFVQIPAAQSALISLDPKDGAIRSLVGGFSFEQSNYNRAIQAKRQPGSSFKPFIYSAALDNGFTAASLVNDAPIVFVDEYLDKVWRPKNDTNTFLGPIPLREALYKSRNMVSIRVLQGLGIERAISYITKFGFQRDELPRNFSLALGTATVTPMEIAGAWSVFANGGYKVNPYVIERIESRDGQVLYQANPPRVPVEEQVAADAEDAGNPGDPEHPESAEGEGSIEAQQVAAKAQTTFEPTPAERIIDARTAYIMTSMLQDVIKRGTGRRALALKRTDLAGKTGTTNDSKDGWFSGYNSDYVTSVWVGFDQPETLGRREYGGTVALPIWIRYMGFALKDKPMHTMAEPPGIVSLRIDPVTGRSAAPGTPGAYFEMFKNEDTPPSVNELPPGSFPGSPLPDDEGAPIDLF", "experiment": "PBP-binding affinity (IC50), bocillin FL, isolated membranes", "set-up": "species or system P. aeruginosa PAO1", "conditions": "PAO1 membranes 0.5 mg/mL, 30 min, 25 µM bocillin FL", "procedure": "as §1, §2"}, "PBP2 [4]": {"biological_target": "T4, PBP2 (Pseudomonas aeruginosa, UniProt Q9X6V3)", "T4 construct": "PBP-containing membranes were isolated by ultracentrifugation; endogenous in cells; host or cells: P. aeruginosa PAO1 wild type (membrane preparations or intact cells)", "T4 sequence (Q9X6V3 entry or part of it)": "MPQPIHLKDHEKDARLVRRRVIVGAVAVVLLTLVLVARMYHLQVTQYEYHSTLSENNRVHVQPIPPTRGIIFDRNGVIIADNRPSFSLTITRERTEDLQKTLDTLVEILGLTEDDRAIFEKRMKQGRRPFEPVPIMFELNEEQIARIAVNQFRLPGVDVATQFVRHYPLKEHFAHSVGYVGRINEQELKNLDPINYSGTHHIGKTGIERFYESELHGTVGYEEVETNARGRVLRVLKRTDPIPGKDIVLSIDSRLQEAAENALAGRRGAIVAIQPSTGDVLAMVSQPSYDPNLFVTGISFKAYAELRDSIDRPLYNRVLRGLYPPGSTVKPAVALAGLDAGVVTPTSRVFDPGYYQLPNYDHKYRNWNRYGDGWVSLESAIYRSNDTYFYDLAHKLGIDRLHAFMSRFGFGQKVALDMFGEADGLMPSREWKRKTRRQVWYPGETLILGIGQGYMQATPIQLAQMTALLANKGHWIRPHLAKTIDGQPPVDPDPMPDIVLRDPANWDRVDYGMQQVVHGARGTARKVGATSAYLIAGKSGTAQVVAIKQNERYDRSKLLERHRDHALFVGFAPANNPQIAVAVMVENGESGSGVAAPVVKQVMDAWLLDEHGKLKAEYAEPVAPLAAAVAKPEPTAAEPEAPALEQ", "experiment": "PBP-binding affinity (IC50), bocillin FL, isolated membranes", "set-up": "species or system P. aeruginosa PAO1", "conditions": "PAO1 membranes 0.5 mg/mL, 30 min, 25 µM bocillin FL; read-out: Mean IC50 ± SD, PBP 2 (converted)", "procedure": "as §1, §2"}, "PBP5/6 [5]": {"biological_target": "T5, PBP5/6 (Pseudomonas aeruginosa, UniProt G3XD74)", "T5 sequence (G3XD74 entry or part of it)": "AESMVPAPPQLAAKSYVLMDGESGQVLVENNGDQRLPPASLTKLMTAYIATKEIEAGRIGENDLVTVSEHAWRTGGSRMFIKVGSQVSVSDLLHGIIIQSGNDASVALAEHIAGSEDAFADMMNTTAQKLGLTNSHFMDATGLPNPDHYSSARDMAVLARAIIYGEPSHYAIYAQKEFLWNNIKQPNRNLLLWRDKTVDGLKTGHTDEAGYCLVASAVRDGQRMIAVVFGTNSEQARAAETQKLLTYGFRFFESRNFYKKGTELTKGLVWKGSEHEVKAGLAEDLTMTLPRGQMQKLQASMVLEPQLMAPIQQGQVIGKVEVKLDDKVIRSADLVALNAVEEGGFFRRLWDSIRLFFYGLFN", "experiment": "PBP-binding affinity (IC50), bocillin FL, isolated membranes", "set-up": "species or system P. aeruginosa PAO1", "conditions": "PAO1 membranes 0.5 mg/mL, 30 min, 25 µM bocillin FL; read-out: Mean IC50 ± SD, PBP 5/6 (converted)", "procedure": "as §1, §2"}, "PBP1b [6]": {"biological_target": "T6, PBP1b (Pseudomonas aeruginosa, UniProt G3XD31)", "T6 sequence (G3XD31 entry or part of it)": "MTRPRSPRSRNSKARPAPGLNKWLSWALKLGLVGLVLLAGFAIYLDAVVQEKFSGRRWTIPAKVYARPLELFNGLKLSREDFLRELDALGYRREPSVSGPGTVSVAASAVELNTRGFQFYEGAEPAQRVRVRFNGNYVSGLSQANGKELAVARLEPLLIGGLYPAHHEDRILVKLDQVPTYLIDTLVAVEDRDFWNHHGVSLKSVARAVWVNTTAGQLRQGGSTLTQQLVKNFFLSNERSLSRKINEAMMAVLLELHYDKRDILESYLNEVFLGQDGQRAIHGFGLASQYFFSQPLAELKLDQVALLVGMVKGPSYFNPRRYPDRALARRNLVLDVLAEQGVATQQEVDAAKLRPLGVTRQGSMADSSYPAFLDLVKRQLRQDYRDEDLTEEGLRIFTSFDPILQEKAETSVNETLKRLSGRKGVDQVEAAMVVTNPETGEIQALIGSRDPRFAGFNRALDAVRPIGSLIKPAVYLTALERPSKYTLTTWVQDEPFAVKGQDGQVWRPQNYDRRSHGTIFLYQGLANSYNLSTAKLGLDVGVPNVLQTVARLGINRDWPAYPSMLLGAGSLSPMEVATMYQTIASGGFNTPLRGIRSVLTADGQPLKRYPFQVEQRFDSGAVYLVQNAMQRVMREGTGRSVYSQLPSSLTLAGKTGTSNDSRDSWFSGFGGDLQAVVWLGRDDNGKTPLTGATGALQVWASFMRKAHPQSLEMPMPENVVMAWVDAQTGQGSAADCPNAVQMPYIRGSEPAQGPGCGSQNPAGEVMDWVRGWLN", "experiment": "PBP-binding affinity (IC50), bocillin FL, isolated membranes", "set-up": "species or system P. aeruginosa PAO1", "conditions": "PAO1 membranes 0.5 mg/mL, 30 min, 25 µM bocillin FL; read-out: Mean IC50 ± SD, PBP 1b (converted)", "procedure": "as §1, §2"}, "PBP4 [7]": {"biological_target": "T2, PBP4", "experiment": "Intact cells' time-course of PBP-binding assay", "type": "cell-based, P. aeruginosa PAO1", "conditions": "1 h; intact PAO1 cells, 4 µg/mL avibactam, 60 min; read-out: PBP4 fraction bound", "procedure": "(§3) Figure 2 Time-course of intact cells and isolated PBP-binding assay. P. aeruginosa PAO1 cultures (a) and isolated PBP-containing membrane preparations (b) were incubated for 15, 30 and 60 min in the presence of 4 µg/mL avibactam (AVI). After isolating PBP-containing membranes, preparations were labeled with 25 µM bocillin FL. The graphs represent the PBP fraction unbound relative to each time control over time. The mean PBP fraction unbound values from at least three independent experiments ± standard deviations are shown.\n(§4) P. aeruginosa PAO1 cultures grown to the midexponential phase (7.6 log10 CFU/mL) were preincubated in cation-adjusted Mueller–Hinton broth (CAMHB) at 37 °C (180 rpm) for 20 min. Afterwards, 4 µg/mL of avibactam (AVI) was added, and the bacterial cultures were incubated (37 °C, 180 rpm). Control and treatment samples were taken after 15, 30 and 60 min incubation, kept in ice and centrifuged (3220× g for 10 min at 4 °C). The bacterial pellets were washed in 30 mL phosphate-buffered saline (PBS) (pH 7.5) four times, resuspended in 10 mL of PBS and sonicated by using a Digital Sonifier Unit model S-450D (Branson Ultrasonics Corp., Danbury, CT, USA) at 40% amplitude for three 2 min bursts (while immersed in an ice bath) and centrifuged at 3220× g for 15 min at 4 °C. Membranes containing the PBPs were isolated by ultracentrifugation at 150,000× g for 30 min at 4 °C using an Optima L100XP Ultra centrifuge (Beckman Coulter, Inc., Palo Alto, CA, USA) and were resuspended in 60 μL of PBS. Total protein content was measured using the Quick Start Bradford protein assay kit with bovine serum albumin as a standard (Bio-Rad Laboratories, Hercules, CA, USA), according to the manufacturer’s instructions. To determine the PBP fraction unbound, membranes containing PBPs (20 μL, at 0.5 mg/mL) were labeled with a 25 μM concentration of the fluorescent penicillin bocillin FL [32]. Labeled PBPs were denatured and separated through 4–15% SDS–polyacrylamide gel electrophoresis (Bio-Rad Laboratories, Hercules, CA, USA). Labeled PBPs were visualized using a Typhoon FLA 9500 biomolecular imager (GE Healthcare Bio-Sciences AB, Uppsala, Sweden) (excitation at 488 nm and emission at 530 nm), and binding to different PBPs was determined from at least three independent experiments using ImageQuant TL software v8.1.0.0 (GE Healthcare Bio-Sciences AB, Uppsala, Sweden)."}, "PBP1a [8]": {"biological_target": "T3, PBP1a", "experiment": "Intact cells' time-course of PBP-binding assay", "type": "cell-based, P. aeruginosa PAO1", "conditions": "intact PAO1 cells, 4 µg/mL avibactam, up to 60 min", "procedure": "as §3, §4"}, "PBP2 [9]": {"biological_target": "T4, PBP2", "experiment": "Intact cells' time-course of PBP-binding assay", "type": "cell-based, P. aeruginosa PAO1", "conditions": "intact PAO1 cells, 4 µg/mL avibactam, 60 min", "procedure": "as §3, §4"}, "PBP5/6 [10]": {"biological_target": "T5, PBP5/6", "experiment": "Intact cells' time-course of PBP-binding assay", "type": "cell-based, P. aeruginosa PAO1", "conditions": "intact PAO1 cells, 4 µg/mL avibactam, up to 60 min", "procedure": "as §3, §4"}, "PBP3 [11]": {"biological_target": "T1, PBP3", "experiment": "Intact cells' time-course of PBP-binding assay", "type": "cell-based, P. aeruginosa PAO1", "conditions": "intact PAO1 cells, 4 µg/mL avibactam, up to 60 min", "procedure": "as §3, §4"}, "PBP1b [12]": {"biological_target": "T6, PBP1b", "experiment": "Intact cells' time-course of PBP-binding assay", "type": "cell-based, P. aeruginosa PAO1", "conditions": "1 h; intact PAO1 cells, 4 µg/mL avibactam, 60 min; read-out: PBP1b fraction bound", "procedure": "as §3, §4"}},
  "data": [
    {"smiles": "NC(=O)[C@@H]1CC[C@@H]2CN1C(=O)N2OS(=O)(=O)O", "note": "[Avibactam]", "values": [
      {"measurement": "Mean IC50 ± SD, PBP 3", "setting": "PBP3 [1]", "value": "no PBP1a and 3 binding was detected"},
      {"measurement": "IC50", "setting": "PBP3 [1]; read-out: Mean IC50 ± SD, PBP 3 (converted)", "value": "> 121", "unit": "µM"},
      {"measurement": "IC50", "setting": "PBP4 [2]", "value": 11.7, "unit": "µM"},
      {"measurement": "Mean IC50 ± SD, PBP 1a", "setting": "PBP1a [3]", "value": "no PBP1a and 3 binding was detected"},
      {"measurement": "IC50", "setting": "PBP1a [3]; read-out: Mean IC50 ± SD, PBP 1a (converted)", "value": "> 121", "unit": "µM"},
      {"measurement": "IC50", "setting": "PBP2 [4]", "value": 15.8, "unit": "µM"},
      {"measurement": "IC50", "setting": "PBP5/6 [5]", "value": 8.29, "unit": "µM"},
      {"measurement": "IC50", "setting": "PBP1b [6]", "value": 13.6, "unit": "µM"},
      {"measurement": "inhibition at 4 µg/mL", "setting": "PBP4 [7]", "value": "≤ 50", "unit": "%"},
      {"measurement": "PBP1a binding in whole-cell assay", "setting": "PBP1a [8]", "value": "No significant"},
      {"measurement": "PBP2 fraction bound", "setting": "PBP2 [9]", "value": 20, "unit": "%"},
      {"measurement": "PBP5/6 binding in whole-cell assay", "setting": "PBP5/6 [10]", "value": "No significant"},
      {"measurement": "PBP3 binding in whole-cell assay", "setting": "PBP3 [11]", "value": "No significant"},
      {"measurement": "inhibition at 4 µg/mL", "setting": "PBP1b [12]", "value": 20, "unit": "%"}
    ]}
  ]
}
